Data as given in publication PMC9502528, “Stability Study of Alpinia galanga Constituents and Investigation of Their Membrane Permeability by ChemGPS-NP and the Parallel Artificial Membrane Permeability Assay” (Pharmaceutics, 2022).
Like-named read-outs stand apart in the source and are kept apart here.

Key:
[1] = PAMPA-BBB (parallel artificial membrane permeability assay, porcine polar brain lipid extract); assay type: in vitro ADME
Description: The test solutions were prepared with DMSO at the concentration of 10.0 mM. These were diluted with PBS buffer pH = 7.4 (PAMPA-BBB) or pH = 6.8 (PAMPA-GI) to obtain the donor solutions (297.0 μL buffer + 3.0 μL DMSO solution) and filtered through Phenex-RC 15 mm, 0.2 μm syringe filters (Gen-Lab Ltd., Budapest, Hungary). A parallel artificial membrane permeability assay (PAMPA) system was used to determine the effective permeability (Pe) for the compounds of interest. Each well of the top plate (96-well polycarbonate-based filter donor plates (Multiscreen™-IP, MAIPN4510, pore size 0.45 μm; Millipore)) was coated with 5 μL of porcine polar brain lipid extract (PBLE) solution (8.0 mg PBLE + 4.0 mg cholesterol dissolved in 300.0 μL n-dodecane) for PAMPA-BBB; or with 5 μL of mixture of 8.0 mg phosphatidylcholine + 4.0 mg cholesterol dissolved in 300.0 μL n-dodecane for PAMPA-GI. Then, 150.0 μL of the filtrate was placed on the membrane. The bottom plate (96-well PTFE acceptor plates (Multiscreen Acceptor Plate, MSSACCEPTOR; Millipore)), was filled with 300.0 μL buffer solution (0.01 M PBS buffer, pH = 7.4). The donor and acceptor plates were fit, and then the sandwich system was incubated at 37 °C for 4 h in a Stat-Fax 2200 (Awareness Technology, Palm City, FL, USA). After the incubation, the PAMPA plates were separated and the compound concentrations in the donor (CD(t)) and acceptor (CA(t)) solutions, as well as in the donor solution at zero time point (CD(0)), were determined by UPLC-DAD. […] At iso-pH conditions (PAMPA-BBB), the effective permeability and the membrane retention of drugs were calculated by the following equation [21]:(1) Pe =−2.303/A(t−τSS)·(VA·VD/VA+VD)·lg[1−(VA+VD/(1−MR)·VD)×(CA(t)/CD(0))], where Pe is the effective permeability coefficient (cm/s), A is the filter area (0.24 cm^2), VD and VA are the volumes in the donor (0.15 cm^3) and acceptor phases (0.30 cm^3), t is the incubation time (s), τSS is the time (s) to reach steady-state (240 s), CD(t) is the concentration (mol/cm^3) of the compound in the donor phase at time t, CD(0) is the concentration (mol/cm^3) of the compound in the donor phase at time 0, and MR is the estimated membrane retention factor (the estimated mole fraction of solute lost to the membrane):(2) MR=1−CD(t)/CD(0)−VA/VDCA(t)/CD(0)
All experiments were performed in three triplicates on three consecutive days (n = 9).

[2] = tested on: nitric oxide (NO) production in mouse peritoneal macrophages; design: method as in PMID 15930771; settings: cited from earlier work
[3] = PAMPA-GI of the A. galanga ethyl acetate extract; assay type: in vitro ADME; settings: donor PBS pH 6.8, 37 °C, 4 h, UHPLC-DAD
Description: The test solutions were prepared with DMSO at the concentration of 10.0 mM. These were diluted with PBS buffer pH = 7.4 (PAMPA-BBB) or pH = 6.8 (PAMPA-GI) to obtain the donor solutions (297.0 μL buffer + 3.0 μL DMSO solution) and filtered through Phenex-RC 15 mm, 0.2 μm syringe filters (Gen-Lab Ltd., Budapest, Hungary). A parallel artificial membrane permeability assay (PAMPA) system was used to determine the effective permeability (Pe) for the compounds of interest. Each well of the top plate (96-well polycarbonate-based filter donor plates (Multiscreen™-IP, MAIPN4510, pore size 0.45 μm; Millipore)) was coated with 5 μL of porcine polar brain lipid extract (PBLE) solution (8.0 mg PBLE + 4.0 mg cholesterol dissolved in 300.0 μL n-dodecane) for PAMPA-BBB; or with 5 μL of mixture of 8.0 mg phosphatidylcholine + 4.0 mg cholesterol dissolved in 300.0 μL n-dodecane for PAMPA-GI. Then, 150.0 μL of the filtrate was placed on the membrane. The bottom plate (96-well PTFE acceptor plates (Multiscreen Acceptor Plate, MSSACCEPTOR; Millipore)), was filled with 300.0 μL buffer solution (0.01 M PBS buffer, pH = 7.4). […] After the incubation, the PAMPA plates were separated and the compound concentrations in the donor (CD(t)) and acceptor (CA(t)) solutions, as well as in the donor solution at zero time point (CD(0)), were determined by UPLC-DAD. […]

[4] = Stability analyses in PBS (pH 7.4) at 37 °C for 4 h, UPLC-DAD; assay type: physicochemical; settings: for percentage difference between the initial and final concentrations: PBS pH 7.4, 37 °C, 4 h, 100 μM; for stability in aqueous media: aqueous media (PBS)
Description: The isolation of 8 compounds (compounds 1, 2, […], 5, 6, 7, 9, and 10) was carried out using flash chromatography and semi-preparative HPLC; the corresponding data is presented in the Supplementary Materials. For stability analyses, the stock solutions were prepared from the ethyl acetate extract (200 mg/mL) and from compounds 1, 2, 4, 5, 6, 7, 9, and 10 dissolved in dimethyl sulfoxide (DMSO) at the concentration of 10.0 mM. These were diluted 100-fold with PBS (Phosphate Buffer Saline; pH = 7.4). The samples were filtered through Phenex-RC 15 mm, 0.2 μm syringe filters (Gen-Lab Ltd., Budapest, Hungary). The solutions were incubated at 37 °C for 4 h; the decomposition was determined by UPLC-DAD. All experiments were performed in triplicates, on three consecutive days ([…]).
The eight isolated compounds (p-OH-benzaldehyde (1), trans-p-coumaryl-alcohol (2), p-coumaryl-aldehyde (4), galanganol A (5), galanganol B (6), trans-p-acetoxycinnamyl alcohol (7), 1′S-1′-acetoxychavicol acetate (9), and 1′S-1′-acetoxyeugenol acetate (10)) were identified by UHPLC-high-resolution Orbitrap® mass spectrometry (HR-MS) and by NMR spectroscopy; the corresponding data is presented in the Supplementary Materials, while Figure 3 depicts the structures of the isolated compounds. In order to answer the questions raised about the possible conversion and decomposition of the A. galanga constituents during the PAMPA-BBB experiment, investigation of the chemical stability of the isolated compounds was carried out in PBS medium (pH 7.4) at 37 °C for 4 h. For the analysis of the samples acquired in the stability experiments, the aforementioned UHPLC-DAD method that had previously been validated for linearity, precision, and accuracy was utilized (Tables S1 and S2).

[5] = design: method as in PMID 10564034; settings: 5% ethanol-containing aqueous solution at 60 °C; cited from earlier work
[6] = pig, PAMPA, pH 7.4, Table S4 sheet Galangal compounds, PAMPA-BBB, read-out: logPe (converted)
[7] = PAMPA-BBB, pH 7.4, 37 °C, 4 h, Pe in cm/s, n = 9

## OC/C=C\c1ccc(O)cc1 [Compound 3a, cis-p-coumaryl-alcohol]
[1]; [6]
  Papp at 4 h, 100 µM: 1.38 ×10⁻⁶ cm/s

## OC/C=C/c1ccc(O)cc1 [Compound 2, trans-p-coumaryl-alcohol]
[2]
  nitric oxide (NO) production inhibitory activity: showed nitric oxide (NO) production inhibitory activities
[1]; [7]
  log Pe: −5.86 ± 0.23
[1]; cutoff log Pe −6.0
  PAMPA-BBB (blood–brain barrier permeability): +
[1]; [6]
  Papp at 4 h, 100 µM: 1.38 ×10⁻⁶ cm/s

## OC[C@H](C/C=C/c1ccc(O)cc1)[C@H](O)c1ccc(O)cc1 [Compound 6, galanganol B]
[3]
  detection in the acceptor solution (PAMPA-GI): except for compounds 5 and 6
[2]
  nitric oxide (NO) production inhibitory activity: showed nitric oxide (NO) production inhibitory activities
[1]; cutoff log Pe −6.0
  PAMPA-BBB (blood–brain barrier permeability): −
[1]; pig, PAMPA, pH 7.4, PAMPA-BBB, pH 7.4, 37 °C, 4 h, Pe in cm/s, n = 9, read-out: log Pe (converted)
  Papp at 4 h, 100 µM: 0.724 ×10⁻⁶ cm/s
[1]; [6]
  Papp at 4 h, 100 µM: 0.776 ×10⁻⁶ cm/s

## O=C/C=C/c1ccc(O)cc1 [Compound 4, p-coumaryl-aldehyde]
[2]
  nitric oxide (NO) production inhibitory activity: showed nitric oxide (NO) production inhibitory activities
[1]; PAMPA
  PAMPA-BBB (blood–brain barrier permeability): +
[1]; pig, PAMPA, 4 h, 100 µM, pH 7.4
  log Pe: −5.25 ± 0.27
[1]; pig, PAMPA, pH 7.4, logPe
  Papp at 4 h, 100 µM: 5.62 ×10⁻⁶ cm/s

## C=C[C@H](OC(C)=O)c1ccc(OC(C)=O)c(OC)c1 [Compound 10, 1′S-1′-acetoxyeugenol acetate]
[4]
  percentage difference between the initial and final concentrations: 14.32%
  stability in aqueous media: unstable
[2]
  nitric oxide (NO) production inhibitory activity: showed nitric oxide (NO) production inhibitory activities
[1]; [6]
  Papp at 4 h, 100 µM: 50.1 ×10⁻⁶ cm/s

## CC(=O)Oc1ccc(/C=C\CO)cc1 [Compound 8a, cis-p-acetoxycinnamyl alcohol]
[1]; [6]
  Papp at 4 h, 100 µM: 31.6 ×10⁻⁶ cm/s

## C=C[C@H](OC(C)=O)c1ccc(OC(C)=O)cc1 [Compound 9, 1′S-1′-acetoxychavicol acetate]
[4]
  percentage difference between the initial and final concentrations: 57.78%
  stability in aqueous media: unstable
[5]
  stability in aqueous ethanol: instability
[2]
  nitric oxide (NO) production inhibitory activity: showed nitric oxide (NO) production inhibitory activities
[1]; [6]
  Papp at 4 h, 100 µM: 39.8 ×10⁻⁶ cm/s

## CC(=O)Oc1ccc(/C=C/CO)cc1 [Compound 7, trans-p-acetoxycinnamyl alcohol]
[4]
  percentage difference between the initial and final concentrations: 8.04%
  stability in aqueous media: unstable
[1]; [6]
  Papp at 4 h, 100 µM: 31.6 ×10⁻⁶ cm/s

## O=Cc1ccc(O)cc1 [Compound 1, p-OH-benzaldehyde]
[1]; [7]
  log Pe: −5.56 ± 0.07
[1]; cutoff log Pe −6.0
  PAMPA-BBB (blood–brain barrier permeability): +
[1]; [6]
  Papp at 4 h, 100 µM: 2.75 ×10⁻⁶ cm/s

## OC[C@@H](C/C=C/c1ccc(O)cc1)[C@H](O)c1ccc(O)cc1 [Compound 5, galanganol A]
[3]
  detection in the acceptor solution (PAMPA-GI): except for compounds 5 and 6
[1]; cutoff log Pe −6.0
  PAMPA-BBB (blood–brain barrier permeability): −
[1]; [6]
  Papp at 4 h, 100 µM: 0.776 ×10⁻⁶ cm/s
